In US8383637B2, “2-amino-quinazoline derivatives useful as inhibitors of β-secretase (BACE)” (Jansssen Pharmaceutica N.V., priority 2004, dated 2013):
Like-named read-outs stand apart in the source and are kept apart here.

What was measured:
Format in all cases: biochemical
β-secretase(BACE) [1] = target: T1, β-secretase(BACE) (Homo sapiens, UniProt P56817); assay: BACE Assay-1 (MCA-substrate, IC50); conditions: procedure of Example 158; read-out: IC50 μM (158)
T1 construct: purchased Panvera
Experimental: The following standards are reagents were used in this assay: Sodium Citrate trisodium salt dihydrate (Sigma), Citric Acid monohydrate (Merck), PEG8000 (Sigma), MCA-substrate (Bachem), β-secretase (BACE) (Panvera), 96-well plate zwart (Costar (Elscolab)), StatVal (Bachem).
The following standard assay buffer solution was prepared and used in this assay: 0.05 M, pH 5.0 mixture of sodium citrate trisodium salt dihydrate (9.56 g), citric acid monohydrate (3.68 g) and PEG8000 (0.50 g).
The MCA-substrate stock solution was prepared by mixing 10 mg MCA-substrate with 5 mL DMSO for a final solution concentration of 2.0 mg/mL. The substrate work solution was prepared by mixing 0.1 mL substrate in 1.90 mL assay buffer for a final concentration of 0.05 mM. The β-secretase (BACE) work solution was prepared by mixing 8 μL BACE in 2 mL assay buffer for a final concentration of 10 μg/mL.
The screen procedure for this assay was as follows. 60 μL of assay buffer was pippeted into each well of a 96-well plate. To each well was then pipetted 1 μL of test compound at the selected concentration. To each well was then added 20 μL of the β-secretase work solution and 20 μL of the MCA-substrate stock solution.
The procedure for the blank was as follows. 80 μL of assay buffer was pipetted into each well to be used as a blank control. To each well was then added 1 μL of DMSO and 20 μL of MCA-substrate solution in each well.
The procedure for the positive control was as follows. 60 μL of assay buffer was pipetted into each well to be used as a positive control. To each well was then added 1 μL of DMSO, 20 μL of BACE work solution and 20 μL of MCA-substrate stock solution.
For test compounds, measured at multiple concentrations, the measured T0 and T60 values were used to calculate an IC50 value using Graphpad Software (or PIR).

β-secretase(BACE) [2] = target: T1, β-secretase(BACE); assay: BACE Assay-2 (FS1 substrate, IC50 and Ki); conditions: procedure of Example 159, FS1 substrate; read-out: Ki μM (159)
β-secretase(BACE) [3] = target: T1, β-secretase(BACE); assay: BACE FS1% Inhibition Assay; conditions: FS1 substrate; for inhibition at 0.3 µM: 0.3 μM test compound; for inhibition at 1 µM: 1 μM test compound; for inhibition at 3 µM: 3 μM test compound
Summary of the method: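 Human BACE (4 μg/mL working solution) preincubated 20 min at room temperature with compound, then FS1 substrate (300 μg/mL working solution) added and incubated 1 h at room temperature. Percent inhibition calculated at each compound concentration against blank and vehicle controls.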

[4] = read-out: % Inhibition (FS) 0.3 μM
[5] = read-out: % Inhibition (FS) 1 μM
[6] = read-out: % Inhibition (FS) 3 μM

T1 sequence (P56817 46-501): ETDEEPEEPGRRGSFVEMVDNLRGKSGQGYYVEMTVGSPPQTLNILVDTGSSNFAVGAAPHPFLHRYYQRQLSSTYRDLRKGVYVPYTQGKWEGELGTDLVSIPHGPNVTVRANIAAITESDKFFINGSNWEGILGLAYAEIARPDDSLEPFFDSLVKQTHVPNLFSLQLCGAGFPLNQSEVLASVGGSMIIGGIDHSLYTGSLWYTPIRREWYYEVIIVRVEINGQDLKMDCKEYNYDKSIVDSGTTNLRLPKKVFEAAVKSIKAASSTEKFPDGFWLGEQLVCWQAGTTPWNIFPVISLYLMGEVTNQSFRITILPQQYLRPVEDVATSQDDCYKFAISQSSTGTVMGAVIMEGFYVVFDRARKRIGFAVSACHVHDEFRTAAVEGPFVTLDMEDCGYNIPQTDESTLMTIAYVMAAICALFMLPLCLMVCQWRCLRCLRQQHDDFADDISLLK

Row | Compound | IC50 (β-secretase(BACE) [1]) | also measured
1 | CC(C)(C)OC(=O)NCCN1Cc2cc(Oc3cccc(NS(=O)(=O)c4ccccc4)c3)ccc2N=C1N [Compound 394] | 0.87 µM | 
2 | CCCN1Cc2cc(Oc3cccc(NS(=O)(=O)c4cccc(C#N)c4)c3)ccc2N=C1N [Compound 270] | 2.37 µM | 
3 | CN(C(=O)CCCCN1Cc2cc(C(=O)c3ccccc3)ccc2N=C1N)C12CC3CC(CC(C3)C1)C2 [Compound 48] | 4 µM | 
4 | CN(C(=O)CCN1Cc2ccc(C(=O)c3ccccc3)cc2N=C1N)C1CCCCC1 [Compound 35] | 33 µM | 
5 | CCCN1Cc2cc(Oc3cccc(NS(=O)(=O)c4ccccc4C(F)(F)F)c3)ccc2N=C1N [Compound 277] | 0.7 µM | 
6 | CCCN1Cc2cc(Oc3cccc(NS(=O)(=O)c4cc(C(=O)O)ccc4OC)c3)ccc2N=C1N [Compound 279] | > 10 µM | 
7 | NC1=Nc2ccc(Oc3cccc(NS(=O)(=O)c4ccccc4)c3)cc2CN1CCCCO [Compound 126] | 0.24 µM | 
8 | COCCN1Cc2cc(C(=O)c3ccccc3)ccc2N=C1N [Compound 18] | 91 µM | 
9 | CCOC(=O)N1CCC(N2Cc3cc(Oc4cccc(NS(=O)(=O)c5ccc(C)cc5OC)c4)ccc3N=C2N)CC1 [Compound 353] | 0.35 µM | 
10 | CCCN1Cc2cc(Oc3cccc(NS(=O)(=O)c4ccsc4C(=O)OC)c3)ccc2N=C1N [Compound 276] | > 10 µM | 
11 | CCCN1Cc2cc(Oc3cccc(NCc4c(C)cc(C)cc4C)c3)ccc2N=C1N [Compound 500] | 0.16 µM | 
12 | CCCN1Cc2cc(Oc3cccc(CNCCc4ccccc4)c3)ccc2N=C1N [Compound 431] | 0.8 µM | 
13 | CN(Cc1ccccc1)C(=O)CCN1Cc2cc(C(=O)c3ccccc3)ccc2N=C1N [Compound 43] | 7.2 µM | 
14 | CCCN1Cc2cc(Oc3cccc(NCc4ccc(OC)cc4)c3)ccc2N=C1N [Compound 502] | 0.18 µM | 
15 | CCCN1Cc2cc(Oc3cccc(NS(=O)(=O)c4ccc(Br)s4)c3)ccc2N=C1N [Compound 284] | 0.87 µM | 
16 | CCCN1Cc2cc(Oc3cccc(NS(=O)(=O)c4cccc5ccccc45)c3)ccc2N=C1N [Compound 274] | > 10 µM | 
17 | CCCN1Cc2cc(Oc3cccc(NS(=O)(=O)c4cc(OC)ccc4OC)c3)ccc2N=C1N [Compound 248] | 6.9 µM | 
18 | CCCN1Cc2cc(Oc3cccc(NS(=O)(=O)c4cccc(OC(F)(F)F)c4)c3)ccc2N=C1N [Compound 252] | 1 µM | 

Row | Compound | IC50 (β-secretase(BACE) [1]) | also measured
19 | CN(CCc1ccccc1)C(=O)CCN1Cc2cc(C(=O)c3ccccc3)ccc2N=C1N [Compound 40] | 9.8 µM | 
20 | CCCN1Cc2cc(Oc3cccc(NS(=O)(=O)c4ccc(OC)cc4)c3)ccc2N=C1N [Compound 272] | 0.52 µM | 
21 | CN(C(=O)CCN1Cc2cc(C(=O)c3ccccc3)ccc2N=C1N)C12CC3CC(CC(C3)C1)C2 [Compound 41] | 5.1 µM | 
22 | CCCN1Cc2cc(Oc3cccc(NS(C)(=O)=O)c3)ccc2N=C1N [Compound 237] | > 10 µM | 
23 | CCCN1Cc2cc(Oc3cccc(NS(=O)(=O)c4cccs4)c3)ccc2N=C1N [Compound 241] | 0.49 µM | 
24 | CN(C(=O)CCN1Cc2cc(Cc3ccccc3)ccc2N=C1N)C1CCCCC1 [Compound 36, 3-(2-Amino-6-benzyl-4H-quinazolin-3-yl)-N-cyclohexyl-N-methyl-propionamide] | 2.3 µM | 
25 | CCCN1Cc2cc(Oc3cccc(NS(=O)(=O)C(C)C)c3)ccc2N=C1N [Compound 238] | 8.9 µM | 
26 | NC1=Nc2ccc(C(=O)c3ccccc3)cc2CN1CCCCC(=O)NC1CCCCC1 [Compound 31] | 2.3 µM | 
27 | COc1cc(OC)cc(Oc2ccc3c(c2)CN(CCCCC(=O)N(C)C2CCCCC2)C(N)=N3)c1 [Compound 288] | > 10 µM | 
28 | CN(C(=O)CCN1Cc2ccccc2N=C1N)c1ccccc1 [Compound 800] | 17 µM | 
29 | CN(C(=O)CCN1Cc2cc(C(=O)c3ccc(F)cc3)ccc2N=C1N)C1CCCC1 [Compound 25] | 5.5 µM | 
30 | NC1=Nc2ccc(-c3ccccc3F)cc2CN1CCNC(=O)C1CCCCC1 [Compound 535] |  | Ki (β-secretase(BACE) [2]): 0.076 µM; inhibition at 0.3 µM (β-secretase(BACE) [3]; [4]): 57%; inhibition at 1 µM (β-secretase(BACE) [3]; [5]): 86%; inhibition at 3 µM (β-secretase(BACE) [3]; [6]): 116%
31 | COC(=O)[C@H](COCc1ccccc1)NC(=O)CC[C@@H](C1CCOCC1)N1Cc2cc(Oc3ccccc3)ccc2N=C1N [Compound 785] |  | Ki (β-secretase(BACE) [2]): 0.198 µM; inhibition at 0.3 µM (β-secretase(BACE) [3]; read-out: % Inhibition (FS)): 71%; inhibition at 1 µM (β-secretase(BACE) [3]; read-out: % Inhibition (FS)): 91%; inhibition at 3 µM (β-secretase(BACE) [3]; read-out: % Inhibition (FS)): 107%
32 | CC(C)CCC(=O)NCCN1Cc2cc(-c3ccccc3F)ccc2N=C1N [Compound 647] |  | Ki (β-secretase(BACE) [2]): 0.033 µM; inhibition at 0.3 µM (β-secretase(BACE) [3]; [4]): 79%; inhibition at 1 µM (β-secretase(BACE) [3]; [5]): 100%; inhibition at 3 µM (β-secretase(BACE) [3]; [6]): 113%
33 | NC1=Nc2ccc(Oc3ccccc3)cc2CN1CCNC(=O)Nc1ccccc1 [Compound 205] |  | Ki (β-secretase(BACE) [2]): 0.32 µM; inhibition at 0.3 µM (β-secretase(BACE) [3]; [4]): < 30%; inhibition at 1 µM (β-secretase(BACE) [3]; [5]): 47%; inhibition at 3 µM (β-secretase(BACE) [3]; [6]): 90%
34 | NC1=Nc2ccc(-c3cccc(Cl)c3)cc2CN1CCNC(=O)C1CCCCC1 [Compound 625] |  | Ki (β-secretase(BACE) [2]): 0.27 µM; inhibition at 0.3 µM (β-secretase(BACE) [3]; [4]): < 30%; inhibition at 1 µM (β-secretase(BACE) [3]; [5]): 54%; inhibition at 3 µM (β-secretase(BACE) [3]; [6]): 95%
35 | Cc1ccccc1-c1ccc2c(c1)CN(Cc1cccc(C(=O)N(C)C3CCCCC3)c1)C(N)=N2 [Compound 261] |  | Ki (β-secretase(BACE) [2]): 0.42 µM; inhibition at 0.3 µM (β-secretase(BACE) [3]; [4]): 51%; inhibition at 1 µM (β-secretase(BACE) [3]; [5]): 87%; inhibition at 3 µM (β-secretase(BACE) [3]; [6]): 110%

Now from value to compound, other results behind:

Row | IC50 (β-secretase(BACE) [1]) | Compound | also measured
36 | 4.7 µM | CCCN1Cc2cc(OCc3cccc(NS(=O)(=O)c4ccccc4)c3)ccc2N=C1N [Compound 203] | 
37 | > 10 µM | CCCN1Cc2cc(Oc3cccc(NS(=O)(=O)c4ccc5c(c4)OCCO5)c3)ccc2N=C1N [Compound 275] | 
38 | 0.31 µM | NC1=Nc2ccc(Oc3cccc(NCC4CCCCC4)c3)cc2CN1CCCCO [Compound 95] | 
39 | 4.2 µM | CN(Cc1ccccc1)C(=O)CCCCN1Cc2cc(C(=O)c3ccccc3)ccc2N=C1N [Compound 47] | 
40 | 1.4 µM | CN(C1CCCCC1)S(=O)(=O)CCN1Cc2cc(C(=O)c3ccccc3)ccc2N=C1N [Compound 57, 2-(2-Amino-6-benzoyl-4H-quinazolin-3-yl)-ethanesulfonic acid cyclohexyl-methyl-amide] | 
41 | 0.15 µM | CN(C(=O)CCCCN1Cc2cc(Oc3cccc(NC(=O)OCc4ccccc4)c3)ccc2N=C1N)C1CCCCC1 [Compound 133] | 
42 | 15 µM | CN(Cc1cccc2ccccc12)C(=O)CCN1Cc2cc(C(=O)c3ccccc3)ccc2N=C1N [Compound 42] | 
43 | 0.89 µM | CCCN1Cc2cc(Oc3cccc(NS(=O)(=O)c4ccsc4)c3)ccc2N=C1N [Compound 240] | 
44 | 0.033 µM | CCCN1Cc2cc(Oc3cccc(NS(=O)(=O)c4c(C)cc(C)cc4C)c3)ccc2N=C1N [Compound 243] | 
45 | 0.65 µM | Cc1cc(C)c(S(=O)(=O)Nc2cccc(Oc3ccc4c(c3)CN(CCCCCO)C(N)=N4)c2)c(C)c1 [Compound 383] | 
46 | > 10 µM | CCCN1Cc2cc(Oc3cccc(NS(=O)(=O)c4ccc(NC(C)=O)cc4)c3)ccc2N=C1N [Compound 246] | 
47 | > 10 µM | CCCN1Cc2cc(Oc3cccc(NS(=O)(=O)c4cc(S(=O)(=O)c5ccccc5)cs4)c3)ccc2N=C1N [Compound 285] | 
48 | 0.011 µM | CCCN1Cc2cc(Sc3cccc(NS(=O)(=O)c4c(C)cc(C)cc4C)c3)ccc2N=C1N [Compound 497] | 
49 | 0.35 µM | CCCN1Cc2cc(Oc3cccc(NS(=O)(=O)Cc4ccccc4)c3)ccc2N=C1N [Compound 269] | 
50 | 11 µM | CCCN1Cc2cc(Oc3cccc(NS(=O)(=O)c4ccc(-c5ccccc5)cc4)c3)ccc2N=C1N [Compound 280] | 
51 | 5.8 µM | CCCN1Cc2cc(Oc3cccc(C(=O)NCc4c(C)cc(C)cc4C)c3)ccc2N=C1N [Compound 423] | 
